From the supplement of paper PMC10307832

Key:
Test in all cases: relative viability (nuclei count vs DMSO), 5 days (fraction); higher = more cells survive
[1] = compound: C1/C(=C\C2=CC=CS2)/C(=O)/C(=C/C3=CC=CS3)/C1 + Cc1nc(Nc2ncc(C(=O)Nc3c(C)cccc3Cl)s2)cc(N2CCN(CCO)CC2)n1 [Dasatinib] (partner 0.075 µM)
How it was run: (§1)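 Five library-drug doses in √10 steps were combined with a fixed anchor-drug dose, or a single drug was given alone, by pin tool to lung cancer cell lines in 1536-well plates the day after seeding. Nuclei were stained and counted after 5 days. Relative viability is the nuclei count in treated wells over that in vehicle wells, taken as the median of duplicate plates.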

Lestaurtinib + Lapatinib = compound: C[C@]12O[C@H](C[C@]1(O)CO)n1c3ccccc3c3c4c(c5c6ccccc6n2c5c31)CNC4=O [Lestaurtinib] + CS(=O)(=O)CCNCc1ccc(-c2ccc3ncnc(Nc4ccc(OCc5cccc(F)c5)c(Cl)c4)c3c2)o1 [Lapatinib] (partner 2 µM)
How it was run: as §1

TPCA-1 + Linsitinib = compound: C1=CC(=CC=C1C2=CC(=C(S2)NC(=O)N)C(=O)N)F [TPCA-1] + C[C@]1(O)C[C@@H](c2nc(-c3ccc4ccc(-c5ccccc5)nc4c3)c3c(N)nccn32)C1 [Linsitinib] (partner 1 µM)
How it was run: as §1

[2] = compound: C1/C(=C\C2=CC=CS2)/C(=O)/C(=C/C3=CC=CS3)/C1 + Nc1nc2[nH]cc(CCc3ccc(C(=O)N[C@@H](CCC(=O)O)C(=O)O)cc3)c2c(=O)[nH]1 [Pemetrexed] (partner 0.2 µM)
How it was run: as §1

UMC-11
relative viability ([1]; first compound 0.2 µM): 0.555
relative viability ([1]; first compound 0.6325 µM): 0.507
relative viability ([1]; first compound 20 µM): 0.472
relative viability (Lestaurtinib + Lapatinib; first compound 0.005 µM): 1.01
relative viability (Lestaurtinib + Lapatinib; first compound 0.01581 µM): 0.921
relative viability (Lestaurtinib + Lapatinib; first compound 0.05 µM): 0.65
relative viability (Lestaurtinib + Lapatinib; first compound 0.1581 µM): 0.305
relative viability (Lestaurtinib + Lapatinib; first compound 0.5 µM): 0.196
relative viability (TPCA-1 + Linsitinib; first compound 0.04 µM): 1.03
relative viability (TPCA-1 + Linsitinib; first compound 0.1265 µM): 1
relative viability (TPCA-1 + Linsitinib; first compound 0.4 µM): 1.04
relative viability (TPCA-1 + Linsitinib; first compound 1.265 µM): 0.918
relative viability (TPCA-1 + Linsitinib; first compound 4 µM): 0.615
relative viability ([2]; first compound 0.2 µM): 0.816
relative viability ([2]; first compound 0.6325 µM): 0.817
relative viability ([2]; first compound 2 µM): 0.789
relative viability ([2]; first compound 6.325 µM): 0.563
relative viability ([2]; first compound 20 µM): 0.824
